The source made the active and inactive calls. The rule behind the calls is not given here.

Activity and inhibition data for 15 compounds are collected here from ChEMBL document CHEMBL3875161, “Thiazolidin-4-ones from 4-(methylthio)benzaldehyde and 4-(methylsulfonyl)benzaldehyde: Synthesis, antiglioma activity and cytotoxicity” (Eur J Med Chem, 2016).

The nature of data set [1]: Cytotoxicity against Wistar rat C6 cells assessed as decrease in cell viability at 100 uM after 48 hrs by MTT assay relative to control. The class given is functional. (In general: Tetrazolium dyes change colour on reduction, which living cells bring about.)
Data set [2] is filed under the species Rattus norvegicus. Kind of data set: Cytotoxicity against Wistar rat primary astrocytes assessed as inhibition of cell viability at 250 uM after 72 hrs by MTT assay. The class given is toxicity. Particulars: astrocyte.
Data set [3] is filed under the species Rattus norvegicus. Kind of data set: Cytotoxicity against Wistar rat primary astrocytes assessed as inhibition of cell viability at 100 uM after 72 hrs by MTT assay. The class given is toxicity. The following applies: astrocyte.
Data set [4] has as its system C6. Kind of data set: Induction of necrosis in Wistar rat C6 cells at 50 to 100 uM after 72 hrs by propidium iodide staining based fluorescence microscopic analysis. The class given is functional, cell-based.
In data set [5] the test system is C6. The experiment in a line: Induction of necrosis in Wistar rat C6 cells assessed as change in cell morphology at 50 to 100 uM. It counts as functional, cell-based.
Data set [6] relates to C6. The experiment in a line: Cytotoxicity against Wistar rat C6 cells assessed as inhibition of cell viability at 25 uM after 72 hrs by MTT assay. It counts as functional, cell-based.
Data set [7] has as its system C6. The experiment in a line: Induction of necrosis in Wistar rat C6 cells assessed as lowering of cell density at 50 to 100 uM. The class given is functional, cell-based.
Data set [8] has as its system C6. The experiment in a line: Cytotoxicity against Wistar rat C6 cells assessed as inhibition of cell viability at 25 uM after 48 hrs by MTT assay. It counts as functional, cell-based.
Data set [9] in a line: Cytotoxicity against Wistar rat C6 cells assessed as decrease in cell viability at 100 uM after 72 hrs by MTT assay relative to control. The class given is functional.
In data set [10] the test system is C6. Kind of data set: Cytotoxicity against Wistar rat C6 cells assessed as inhibition of cell viability at 50 uM after 48 hrs by MTT assay. It counts as functional, cell-based.
Data set [11] concerns C6. Kind of data set: Cytotoxicity against Wistar rat C6 cells assessed as inhibition of cell viability at 50 uM after 72 hrs by MTT assay. It counts as functional, cell-based.
In data set [12] the test system is C6. Kind of data set: Cytotoxicity against Wistar rat C6 cells assessed as inhibition of cell viability at 5 uM after 72 hrs by MTT assay. The class given is functional, cell-based.

For `CS(=O)(=O)c1ccc(C2SCC(=O)N2Cc2ccccn2)cc1` (stereo not drawn), the Activity is 47.2% in data set [1], “Non-Toxic” in the data set filed under Rattus norvegicus [2], “Non-Toxic” in the data set filed under Rattus norvegicus [3] and 77% in data set [9]. Besides, the outcome in the data set with C6 [4], with C6 [5] and with C6 [7] was Active. Moreover, the inhibition entry in the data set with C6 [6] and with C6 [8] was “Active” throughout.
As for `CSc1ccc(C2SCC(=O)N2CCN2CCCCC2)cc1` (stereo not drawn), the Activity result in the data set filed under Rattus norvegicus [2] is recorded as “Toxic”; in the data set filed under Rattus norvegicus [3], “Non-Toxic”; in [9] it was 61%.
Regarding `CSc1ccc(C2SCC(=O)N2c2ccc3c(c2)OCO3)cc1` (stereo not drawn), the Activity was 61.2% in [1], “Non-Toxic” in the data set listed under Rattus norvegicus [2], “Non-Toxic” in the data set filed under Rattus norvegicus [3] and 81.7% in [9]. The result with C6 [4], with C6 [5] and in the data set with C6 [7] was Active. For the same compound, the inhibition result with C6 [10] and in the data set with C6 [11] was “Active” in each case.
In the case of `CS(=O)(=O)c1ccc(C2SCC(=O)N2c2ccccn2)cc1` (stereo not drawn), the Activity entry in the data set filed under Rattus norvegicus [2] and in the data set listed under Rattus norvegicus [3] was “Non-Toxic” throughout.
Regarding `Cn1nnc2c(C(N)=O)ncn2c1=O` [TEMOZOLOMIDE], the Activity in data set [1] was 42.3%; in [9], 39.7%.
Turning to `CS(=O)(=O)c1ccc(C2SCC(=O)N2CCCN2CCCCC2)cc1` (stereo not drawn), the Activity result in the data set filed under Rattus norvegicus [2] and in the data set filed under Rattus norvegicus [3] was “Non-Toxic” each time.
Consider `CSc1ccc(C2SCC(=O)N2c2ccccn2)cc1` (stereo not drawn), for which the Activity result in the data set filed under Rattus norvegicus [2] and in the data set listed under Rattus norvegicus [3] was “Non-Toxic” throughout.
As for `CSc1ccc(C2SCC(=O)N2c2ccc(SC)cc2)cc1` (stereo not drawn), the Activity result in the data set filed under Rattus norvegicus [2] and in the data set listed under Rattus norvegicus [3] was “Non-Toxic” in each case.
Regarding `CSc1ccc(C2SCC(=O)N2Cc2ccccn2)cc1` (stereo not drawn), the Activity in data set [1] was 48%; in the data set filed under Rattus norvegicus [2] it was “Non-Toxic”; in the data set filed under Rattus norvegicus [3], “Non-Toxic”; in data set [9], 75%. The result in the data set on C6 [4], with C6 [5] and with C6 [7] was Active. In the data set on C6 [12], the inhibition entry was “Active”.
For the compound `CCN(CC)CCCN1C(=O)CSC1c1ccc(SC)cc1` (stereo not drawn), the figures for the Activity result (in the data set filed under Rattus norvegicus [2]; in the data set listed under Rattus norvegicus [3]; in [9]) were “Toxic”, “Non-Toxic” and 67.5%, respectively.
`CCN(CC)CCCN1C(=O)CSC1c1ccc(S(C)(=O)=O)cc1` (stereo not drawn): the Activity result in the data set filed under Rattus norvegicus [2] is reported as “Toxic”; in the data set filed under Rattus norvegicus [3], “Non-Toxic”.
As for `CS(=O)(=O)c1ccc(C2SCC(=O)N2CCN2CCCCC2)cc1` (stereo not drawn), the Activity result in the data set listed under Rattus norvegicus [2] and in the data set listed under Rattus norvegicus [3] was “Non-Toxic” each time.
As for `CSc1ccc(N2C(=O)CSC2c2ccc(S(C)(=O)=O)cc2)cc1` (stereo not drawn), the Activity result in the data set listed under Rattus norvegicus [2] and in the data set listed under Rattus norvegicus [3] was “Non-Toxic” each time.
`CSc1ccc(C2SCC(=O)N2CCCN2CCCCC2)cc1` (stereo not drawn): the Activity is 52.2% in data set [1], “Toxic” in the data set listed under Rattus norvegicus [2], “Non-Toxic” in the data set filed under Rattus norvegicus [3] and 78% in data set [9]. Besides, the result in the data set with C6 [4], in the data set with C6 [5] and in the data set with C6 [7] was Active. For the same compound, the inhibition result with C6 [12] was “Active”.
On to `CS(=O)(=O)c1ccc(C2SCC(=O)N2c2ccc3c(c2)OCO3)cc1` (stereo not drawn), for which the Activity entry in the data set listed under Rattus norvegicus [2] and in the data set filed under Rattus norvegicus [3] was “Non-Toxic” throughout.
